Test results from publication PMC3914206.

Columns and labels:
Test in all cases: KiNativ chemical proteomics profiling in HeLa and PC3 cell lysates
Format in all cases: binding
[1] = target: T1, selected panels of kinases in HeLa and PC3 cell lysates (Homo sapiens, UniProt O75385); conditions: 10 uM; ULK1; peptide DLk[…]; proteome HEL; labeling site Lys2
T1 construct: endogenous in cells; host or cells: HeLa and PC3 cell lysates

[2] = target: T2, selected panels of kinases in HeLa and PC3 cell lysates (Homo sapiens, UniProt Q15831); conditions: 10 uM, peptide DIk[…], labeling site Lys2
T2 construct: endogenous in cells; host or cells: HeLa and PC3 cell lysates
T2 sequence (Q15831 1-433): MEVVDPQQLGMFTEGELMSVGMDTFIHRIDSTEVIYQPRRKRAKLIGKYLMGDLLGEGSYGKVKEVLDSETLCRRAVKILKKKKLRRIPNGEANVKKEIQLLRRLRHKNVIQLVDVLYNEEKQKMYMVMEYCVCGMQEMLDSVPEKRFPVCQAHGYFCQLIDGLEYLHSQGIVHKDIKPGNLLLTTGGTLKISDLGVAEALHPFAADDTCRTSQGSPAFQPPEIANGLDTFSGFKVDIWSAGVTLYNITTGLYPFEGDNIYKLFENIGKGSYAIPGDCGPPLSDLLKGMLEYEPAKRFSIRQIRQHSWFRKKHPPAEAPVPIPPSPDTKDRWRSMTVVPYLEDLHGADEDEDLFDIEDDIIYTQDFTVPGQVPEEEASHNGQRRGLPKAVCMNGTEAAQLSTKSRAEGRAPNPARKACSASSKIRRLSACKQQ

[3] = target: T3, selected panels of kinases in HeLa and PC3 cell lysates (Homo sapiens, UniProt Q15131); conditions: 10 uM; proteome PC3; peptide DLkVSNLLMTDK; labeling site Lys2
T3 construct: endogenous in cells; host or cells: HeLa and PC3 cell lysates

[4] = target: T4, selected panels of kinases in HeLa and PC3 cell lysates (Homo sapiens, UniProt Q9BZL6); conditions: 10 uM, PKD2, peptide DVAVkVIDK, labeling site Lys1
T4 construct: endogenous in cells; host or cells: HeLa and PC3 cell lysates
T4 sequence (Q9BZL6 1-878): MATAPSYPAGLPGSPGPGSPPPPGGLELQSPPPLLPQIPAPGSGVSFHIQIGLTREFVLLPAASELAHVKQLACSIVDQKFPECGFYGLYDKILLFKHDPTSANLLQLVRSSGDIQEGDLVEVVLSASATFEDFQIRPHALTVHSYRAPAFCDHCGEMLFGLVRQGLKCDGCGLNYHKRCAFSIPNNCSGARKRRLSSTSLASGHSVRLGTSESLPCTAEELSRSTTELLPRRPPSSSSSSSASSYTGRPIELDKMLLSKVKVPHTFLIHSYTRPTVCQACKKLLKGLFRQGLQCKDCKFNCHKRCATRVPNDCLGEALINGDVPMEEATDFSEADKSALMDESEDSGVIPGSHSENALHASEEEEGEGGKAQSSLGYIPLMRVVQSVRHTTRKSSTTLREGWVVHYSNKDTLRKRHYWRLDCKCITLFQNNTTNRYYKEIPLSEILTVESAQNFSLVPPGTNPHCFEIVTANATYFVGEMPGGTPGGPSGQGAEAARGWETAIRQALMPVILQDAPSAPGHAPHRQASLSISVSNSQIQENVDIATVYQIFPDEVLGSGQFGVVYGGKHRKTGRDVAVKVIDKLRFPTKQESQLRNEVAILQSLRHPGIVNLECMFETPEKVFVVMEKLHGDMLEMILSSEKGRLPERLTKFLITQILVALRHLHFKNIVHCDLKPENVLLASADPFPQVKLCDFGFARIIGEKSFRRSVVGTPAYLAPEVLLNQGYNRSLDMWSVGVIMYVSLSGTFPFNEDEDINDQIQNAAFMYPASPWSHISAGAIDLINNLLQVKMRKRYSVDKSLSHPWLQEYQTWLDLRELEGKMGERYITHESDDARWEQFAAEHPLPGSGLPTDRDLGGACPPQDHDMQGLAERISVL

[5] = target: T5, selected panels of kinases in HeLa and PC3 cell lysates (Homo sapiens, UniProt Q96S44); conditions: 10 uM, PRPK, peptide FLSGLELVkQGAEAR, labeling site ATP Loop
T5 construct: endogenous in cells; host or cells: HeLa and PC3 cell lysates
T5 sequence (Q96S44 1-253): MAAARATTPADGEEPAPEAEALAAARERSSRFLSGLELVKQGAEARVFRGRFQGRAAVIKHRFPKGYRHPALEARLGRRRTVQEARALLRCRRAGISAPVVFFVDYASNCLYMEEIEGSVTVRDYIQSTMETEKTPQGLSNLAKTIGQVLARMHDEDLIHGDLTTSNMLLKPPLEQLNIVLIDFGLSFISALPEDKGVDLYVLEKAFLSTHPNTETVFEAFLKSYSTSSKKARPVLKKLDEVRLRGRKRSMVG

[6] = target: T6, selected panels of kinases in HeLa and PC3 cell lysates (Homo sapiens, UniProt Q96J92); conditions: 10 uM; Wnk4; peptide DLk[…]; proteome PC3; labeling site Lys2
T6 construct: endogenous in cells; host or cells: HeLa and PC3 cell lysates

[7] = target: T7, selected panels of kinases in HeLa and PC3 cell lysates (Homo sapiens, UniProt P24941); conditions: 10 uM, peptide DLk[…], labeling site Lys2
T7 construct: endogenous in cells; host or cells: HeLa and PC3 cell lysates

[8] = target: T8, selected panels of kinases in HeLa and PC3 cell lysates (Homo sapiens, UniProt Q13464); conditions: 10 uM; ROCK1; peptide kLQLELNQER; proteome PC3; labeling site Other
T8 construct: endogenous in cells; host or cells: HeLa and PC3 cell lysates

[9] = target: T9, selected panels of kinases in HeLa and PC3 cell lysates (Homo sapiens, UniProt P41240); conditions: 10 uM, peptide VSDFGLTk[…], labeling site Activation Loop
T9 construct: endogenous in cells; host or cells: HeLa and PC3 cell lysates

[10] = target: T10, selected panels of kinases in HeLa and PC3 cell lysates (Homo sapiens, UniProt P51812); conditions: 10 uM; for % Inhibition RSK2 domain1: peptide LTDFGLSkESIDHEKK, labeling site Activation Loop
T10 construct: endogenous in cells; host or cells: HeLa and PC3 cell lysates

[11] = target: T11, selected panels of kinases in HeLa and PC3 cell lysates (Homo sapiens, UniProt Q7RTN6); conditions: 10 uM; STLK5; peptide YSVk[…]; proteome HEL; labeling site Activation Loop
T11 construct: endogenous in cells; host or cells: HeLa and PC3 cell lysates

[12] = target: T12, selected panels of kinases in HeLa and PC3 cell lysates (Homo sapiens, UniProt P15735); conditions: 10 uM; PHKg2; peptide ATGHEFAVkIMEVTAER; proteome PC3; labeling site Lys1
T12 construct: endogenous in cells; host or cells: HeLa and PC3 cell lysates

[13] = peptide DLk[…], proteome PC3, labeling site Lys2
[14] = peptide Sk[…], proteome HEL, labeling site Protein Kinase Domain
[15] = peptide Sk[…], proteome PC3, labeling site Protein Kinase Domain

T9 sequence (P41240 whole entry): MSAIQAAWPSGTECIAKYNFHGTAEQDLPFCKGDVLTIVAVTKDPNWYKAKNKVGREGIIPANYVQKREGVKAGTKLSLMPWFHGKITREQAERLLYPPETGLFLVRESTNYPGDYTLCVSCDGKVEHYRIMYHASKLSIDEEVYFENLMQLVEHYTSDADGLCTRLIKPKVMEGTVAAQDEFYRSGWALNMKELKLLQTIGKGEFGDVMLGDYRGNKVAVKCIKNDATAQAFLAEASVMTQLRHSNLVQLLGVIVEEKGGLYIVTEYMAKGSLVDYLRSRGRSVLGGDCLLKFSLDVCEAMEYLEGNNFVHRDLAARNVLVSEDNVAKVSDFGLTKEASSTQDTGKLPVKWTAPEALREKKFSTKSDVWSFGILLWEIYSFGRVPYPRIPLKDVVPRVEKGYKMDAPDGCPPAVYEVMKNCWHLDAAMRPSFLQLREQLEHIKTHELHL
T10 sequence (P51812 whole entry, the tested form may be a part): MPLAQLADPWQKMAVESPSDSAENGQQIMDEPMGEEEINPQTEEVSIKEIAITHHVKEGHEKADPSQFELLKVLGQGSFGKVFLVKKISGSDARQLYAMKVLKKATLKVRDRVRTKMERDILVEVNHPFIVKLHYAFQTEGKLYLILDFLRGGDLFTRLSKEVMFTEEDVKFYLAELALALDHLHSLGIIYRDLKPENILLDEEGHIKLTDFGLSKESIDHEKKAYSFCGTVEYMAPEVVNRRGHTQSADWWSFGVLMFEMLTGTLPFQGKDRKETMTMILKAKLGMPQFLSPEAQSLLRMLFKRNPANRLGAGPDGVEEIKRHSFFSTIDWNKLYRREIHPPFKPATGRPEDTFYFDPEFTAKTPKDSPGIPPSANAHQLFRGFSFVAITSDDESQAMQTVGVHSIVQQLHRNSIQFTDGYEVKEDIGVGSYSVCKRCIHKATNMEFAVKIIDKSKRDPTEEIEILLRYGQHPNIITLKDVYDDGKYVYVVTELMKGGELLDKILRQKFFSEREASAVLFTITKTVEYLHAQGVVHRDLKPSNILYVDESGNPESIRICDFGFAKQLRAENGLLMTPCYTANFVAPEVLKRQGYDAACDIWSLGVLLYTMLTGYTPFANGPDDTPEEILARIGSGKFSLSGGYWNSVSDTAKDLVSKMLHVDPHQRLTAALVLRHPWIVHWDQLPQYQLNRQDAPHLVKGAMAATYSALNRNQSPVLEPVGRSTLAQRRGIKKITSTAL
T3 sequence (Q15131 whole entry): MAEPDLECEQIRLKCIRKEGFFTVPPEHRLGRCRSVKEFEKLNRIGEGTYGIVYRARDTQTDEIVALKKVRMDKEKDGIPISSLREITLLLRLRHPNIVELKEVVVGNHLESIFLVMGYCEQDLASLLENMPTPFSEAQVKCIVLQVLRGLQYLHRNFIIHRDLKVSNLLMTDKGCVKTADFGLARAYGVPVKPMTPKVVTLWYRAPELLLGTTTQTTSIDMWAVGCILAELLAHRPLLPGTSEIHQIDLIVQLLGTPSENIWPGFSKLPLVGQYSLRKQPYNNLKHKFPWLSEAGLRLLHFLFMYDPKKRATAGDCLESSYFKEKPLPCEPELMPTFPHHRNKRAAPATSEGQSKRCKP
T11 sequence (Q7RTN6 whole entry): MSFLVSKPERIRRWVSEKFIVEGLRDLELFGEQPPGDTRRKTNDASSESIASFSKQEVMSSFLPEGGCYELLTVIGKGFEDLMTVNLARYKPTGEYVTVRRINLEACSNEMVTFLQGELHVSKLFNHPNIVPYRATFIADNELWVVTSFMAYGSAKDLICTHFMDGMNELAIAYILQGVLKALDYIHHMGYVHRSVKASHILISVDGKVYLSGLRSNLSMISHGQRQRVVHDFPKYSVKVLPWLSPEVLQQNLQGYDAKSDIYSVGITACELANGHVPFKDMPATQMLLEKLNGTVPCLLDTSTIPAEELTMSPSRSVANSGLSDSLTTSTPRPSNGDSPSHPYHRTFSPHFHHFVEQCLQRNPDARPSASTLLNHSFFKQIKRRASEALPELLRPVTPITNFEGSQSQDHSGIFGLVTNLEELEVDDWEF
T6 sequence (Q96J92 whole entry): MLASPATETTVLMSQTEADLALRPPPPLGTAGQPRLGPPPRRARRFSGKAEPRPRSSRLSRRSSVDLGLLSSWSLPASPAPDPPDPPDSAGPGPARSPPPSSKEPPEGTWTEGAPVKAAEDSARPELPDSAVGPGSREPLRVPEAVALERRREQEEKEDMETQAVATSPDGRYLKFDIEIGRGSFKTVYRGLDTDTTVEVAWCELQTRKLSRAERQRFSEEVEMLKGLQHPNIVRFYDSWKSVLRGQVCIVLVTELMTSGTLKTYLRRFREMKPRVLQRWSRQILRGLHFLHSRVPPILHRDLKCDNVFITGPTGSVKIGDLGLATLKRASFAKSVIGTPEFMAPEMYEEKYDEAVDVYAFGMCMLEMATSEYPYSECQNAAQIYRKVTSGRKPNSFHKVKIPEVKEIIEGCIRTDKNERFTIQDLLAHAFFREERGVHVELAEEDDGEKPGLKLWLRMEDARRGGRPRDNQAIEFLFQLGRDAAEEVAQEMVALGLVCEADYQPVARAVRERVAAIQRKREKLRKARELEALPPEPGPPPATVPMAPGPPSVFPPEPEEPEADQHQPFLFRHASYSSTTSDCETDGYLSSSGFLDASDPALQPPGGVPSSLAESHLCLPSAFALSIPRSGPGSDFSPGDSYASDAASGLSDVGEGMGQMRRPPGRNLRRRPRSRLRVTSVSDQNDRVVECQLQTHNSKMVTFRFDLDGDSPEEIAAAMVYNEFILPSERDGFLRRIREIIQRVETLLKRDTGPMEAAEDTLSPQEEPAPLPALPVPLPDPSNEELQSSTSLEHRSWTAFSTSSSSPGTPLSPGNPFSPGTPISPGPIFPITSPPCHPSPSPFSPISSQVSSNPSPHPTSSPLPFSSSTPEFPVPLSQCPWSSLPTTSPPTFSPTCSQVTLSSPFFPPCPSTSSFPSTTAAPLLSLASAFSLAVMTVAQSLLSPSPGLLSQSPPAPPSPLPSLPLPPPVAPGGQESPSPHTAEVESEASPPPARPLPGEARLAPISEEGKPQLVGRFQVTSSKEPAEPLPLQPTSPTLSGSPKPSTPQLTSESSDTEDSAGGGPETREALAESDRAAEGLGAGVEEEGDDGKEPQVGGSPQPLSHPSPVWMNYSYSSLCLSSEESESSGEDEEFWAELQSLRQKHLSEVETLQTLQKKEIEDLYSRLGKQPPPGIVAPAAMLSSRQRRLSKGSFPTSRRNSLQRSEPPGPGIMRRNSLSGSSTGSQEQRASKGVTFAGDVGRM
T1 sequence (O75385 whole entry): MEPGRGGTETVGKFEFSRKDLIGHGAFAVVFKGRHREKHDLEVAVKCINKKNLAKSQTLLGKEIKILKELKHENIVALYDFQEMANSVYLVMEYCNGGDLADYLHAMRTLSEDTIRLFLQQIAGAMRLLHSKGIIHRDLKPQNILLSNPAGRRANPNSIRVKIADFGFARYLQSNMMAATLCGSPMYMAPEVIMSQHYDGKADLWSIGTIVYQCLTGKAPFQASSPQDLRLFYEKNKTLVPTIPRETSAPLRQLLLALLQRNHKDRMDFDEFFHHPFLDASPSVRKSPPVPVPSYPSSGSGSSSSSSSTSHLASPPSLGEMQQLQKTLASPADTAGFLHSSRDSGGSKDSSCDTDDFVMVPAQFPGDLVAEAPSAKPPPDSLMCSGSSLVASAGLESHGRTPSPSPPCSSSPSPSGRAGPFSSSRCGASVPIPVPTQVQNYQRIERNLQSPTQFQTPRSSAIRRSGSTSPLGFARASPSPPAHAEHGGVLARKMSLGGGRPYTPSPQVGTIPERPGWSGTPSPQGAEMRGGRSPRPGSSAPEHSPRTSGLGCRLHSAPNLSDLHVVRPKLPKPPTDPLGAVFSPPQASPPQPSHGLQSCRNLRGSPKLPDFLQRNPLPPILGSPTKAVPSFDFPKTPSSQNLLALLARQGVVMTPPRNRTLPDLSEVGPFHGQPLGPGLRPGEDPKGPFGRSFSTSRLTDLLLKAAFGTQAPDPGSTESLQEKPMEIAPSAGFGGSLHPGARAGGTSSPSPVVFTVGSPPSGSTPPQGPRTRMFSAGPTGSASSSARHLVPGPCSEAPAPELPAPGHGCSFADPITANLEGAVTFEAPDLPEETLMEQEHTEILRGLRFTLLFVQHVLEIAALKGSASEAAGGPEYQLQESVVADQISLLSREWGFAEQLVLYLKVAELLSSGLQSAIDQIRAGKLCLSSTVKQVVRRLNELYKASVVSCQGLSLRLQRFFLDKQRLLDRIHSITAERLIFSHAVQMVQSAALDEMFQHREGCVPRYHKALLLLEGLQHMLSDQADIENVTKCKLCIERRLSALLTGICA
T12 sequence (P15735 whole entry): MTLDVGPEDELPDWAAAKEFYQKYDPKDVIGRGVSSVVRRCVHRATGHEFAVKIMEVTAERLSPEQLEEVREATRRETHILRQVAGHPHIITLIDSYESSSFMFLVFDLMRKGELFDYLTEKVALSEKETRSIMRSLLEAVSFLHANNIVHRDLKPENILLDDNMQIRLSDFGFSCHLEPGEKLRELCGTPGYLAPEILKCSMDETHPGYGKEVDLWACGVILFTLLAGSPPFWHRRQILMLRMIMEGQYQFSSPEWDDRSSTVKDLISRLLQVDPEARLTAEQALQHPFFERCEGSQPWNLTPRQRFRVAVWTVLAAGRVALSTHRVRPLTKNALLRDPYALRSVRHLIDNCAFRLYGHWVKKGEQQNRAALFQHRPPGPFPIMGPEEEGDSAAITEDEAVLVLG

Row | Compound | % Inhibition ULK1 [1] [%] | % Inhibiton, LKB1 ([2]; proteome HEL) [%] | % Inhibiton, LKB1 ([2]; proteome PC3) [%] | % Inhibiton, CDK10 [3] [%] | % Inhibition PKD2 ([4]; proteome HEL) [%] | % Inhibition PKD2 ([4]; proteome PC3) [%] | % Inhibition PRPK ([5]; proteome HEL) [%] | % Inhibition PRPK ([5]; proteome PC3) [%] | % Inhibition Wnk4 [6] [%] | % Inhibiton, CDK2 ([7]; proteome HEL) [%] | % Inhibiton, CDK2 ([7]; proteome PC3) [%] | % Inhibition ROCK1 [8] [%] | % Inhibiton, CSK ([9]; proteome HEL) [%] | % Inhibiton, CSK ([9]; proteome PC3) [%] | % Inhibition RSK2 domain1 ([10]; proteome HEL) [%] | % Inhibition RSK2 domain2 [10, 13] [%] | % Inhibition RSK2 domain2 [10, 14] [%] | % Inhibition RSK2 domain2 [10, 15] [%] | % Inhibition STLK5 [11] [%] | % Inhibition PHKg2 [12] [%]
1 | CCOc1cc(C(=O)N2CCC(N3CCN(C)CC3)CC2)ccc1Nc1ncc2c(n1)N(C1CCCC1)c1ccccc1C(=O)N2C [Compound 26] | -5.1 | 6.4 | -0.8 | 10.4 | -14.3 | 26.9 | 9.6 | -5.6 | -2.1 | 7 | -6.7 | -8.1 | 14.3 | -6.9 | 7.2 | -0.5 | 7.4 | -14.6 | ~72.8 | -3.8
2 | COc1cc(C(=O)N2CCC(N3CCN(C)CC3)CC2)ccc1Nc1ncc2c(n1)N(C1CCCC1)c1ccccc1C(=O)N2C [Compound 25, 11-cyclopentyl-2-((2-methoxy-4-(4-(4-methylpiperazin-1-yl)piperidine-1-carbonyl)phenyl)amino)-5-methyl-5H-benzo[e]pyrimido[5,4-b][1,4]diazepin-6(11H)-one] | 6.4 | -0.266 | -4.1 | -11.0 | -7.1 | -2.6 | -8.1 | -11.3 | -16.3 | 9.4 | 5.0 | -4.2 | 6.5 | -4.8 | 1.2 | -4.3 | 1.3 | 1.9 | -32.9 | 8.1
